Test results as given in ChEMBL document CHEMBL3714709, “T1R hetero-oligomeric taste receptors, cell lines that express said receptors, and taste compounds” (2008).
Active and inactive are the calls of the source. The rule behind the calls is not given here.

Key:
[1] = molecular target: T1, Taste receptor type 2 member 105 (Mus musculus) (UniProt Q9JKT4); assay: Inhibition of mouse T2R5 expressed in HEK293 cells; type: cell-based
T1 sequence (whole entry): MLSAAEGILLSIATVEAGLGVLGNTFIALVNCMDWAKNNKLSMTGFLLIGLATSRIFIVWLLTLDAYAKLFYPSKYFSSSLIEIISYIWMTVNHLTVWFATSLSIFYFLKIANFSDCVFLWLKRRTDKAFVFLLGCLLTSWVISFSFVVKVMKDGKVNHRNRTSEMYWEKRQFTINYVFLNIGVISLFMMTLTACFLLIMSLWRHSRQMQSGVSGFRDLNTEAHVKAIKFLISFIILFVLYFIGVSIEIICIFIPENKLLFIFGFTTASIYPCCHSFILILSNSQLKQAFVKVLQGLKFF

[2] = molecular target: Muscarinic acetylcholine receptor (Homo sapiens) (UniProt P20309+P08173+P11229+P08172+P08912); assay: Inhibition of mAChR (unknown origin) expressed in HEK293 cells; type: cell-based
T1R1/T1R3 (Homo sapiens) = T1R1/T1R3 (Homo sapiens) (UniProt Q7RTX0+Q7RTX1); assay: Activation of human T1R1/T1R3; type: protein-complex assay

| Structure (SMILES) | inhibition [1] | inhibition [2] | Activity (T1R1/T1R3 (Homo sapiens)) |
| --- | --- | --- | --- |
| COc1ccc(OC(C)C(=O)O)cc1 (stereo not given) | inactive | inactive |  |
| OC[C@H]1O[C@@](CO)(O[C@H]2O[C@H](CO)[C@@H](O)[C@H](O)[C@H]2O)[C@@H](O)[C@@H]1O |  |  | inactive |
| N[C@H](Cc1c[nH]c2ccccc12)C(=O)O |  |  | inactive |
| O=C1NS(=O)(=O)c2ccccc21 |  |  | inactive |
